Results taken from patent publication US10105357B2, “Indication of antibiotic drugs for preparation of cancer inhibition pharmaceutical composition” (LAUNX BIOMEDICAL CO., LTD., priority 2014, dated 2018).
Structures can show the parent of a compound that is named as a salt. Where two headings read alike, the source gives them in different places.

Experiments:
Format in all cases: cell-based, human
cancer cell lines = test: Cell viability analysis (WST-1) on cancer cell lines; details: drug 10 μM, 72 hours, WST-1; Table 3
[1] = system: HI650 (Lung Adenocarcinoma); test: Cell viability analysis, lung cancer HI650; details: for viability at 10 µM: Homo sapiens
[2] = system: A549 (Lung Adenocarcinoma); test: Cell viability analysis, lung cancer A549; details: for viability at 10 µM: Homo sapiens
[3] = system: AGS (Gastric Adenocarcinoma); test: Cell viability analysis, gastric cancer AGS; details: for viability at 10 µM: Homo sapiens
[4] = system: MKN-45 (Gastric Adenocarcinoma); test: Cell viability analysis, gastric cancer MKN-45; details: for viability at 10 µM: Homo sapiens
[5] = system: HepG2 (Hepatocellular Carcinoma); test: Cell viability analysis, hepatic cancer HepG2; details: for viability at 10 µM: Homo sapiens
[6] = system: LoVo (Colorectal Adenocarcinoma); test: Cell viability analysis, colon cancer LoVo; details: for viability at 10 µM: Homo sapiens, LoVo
[7] = system: A375 (Amelanotic Melanoma); test: Cell viability analysis, skin cancer A375; details: for viability at 10 µM: Homo sapiens
[8] = system: HeLa (Cervix Adenocarcinoma); test: Cell viability analysis, cervical cancer HeLa; details: for viability at 10 µM: Homo sapiens, HeLa
[9] = system: PC3 (p53−) (Prostate Adenocarcinoma); test: Cell viability analysis, prostate cancer PC3; details: for viability at 10 µM: Homo sapiens
[10] = system: TSGH-8301 (Urinary Bladder Carcinoma); test: Cell viability analysis, bladder cancer TSGH-8301; details: Homo sapiens
[11] = system: MCF7 (Mammary Gland, Adenocarcinoma); test: Cell viability analysis, breast cancer MCF7; details: for viability at 10 µM: Homo sapiens
[12] = system: HL-60 (Acute Promyelocytic Leukemia); test: Cell viability analysis, leukemia HL-60; details: for viability at 10 µM: Homo sapiens
[13] = NCI-H1650, 72 h, read-out: cell viability (survival rate), H1650, drug 10 μM, 72 hours, WST-1, OD450 nm
[14] = A549, 72 h, read-out: cell viability (survival rate), A549, drug 10 μM, 72 hours, WST-1, OD450 nm
[15] = 72 h, read-out: cell viability (survival rate), AGS, drug 10 μM, 72 hours, WST-1, OD450 nm
[16] = MKN-45, 72 h, read-out: cell viability (survival rate), MKN-45, drug 10 μM, 72 hours, WST-1, OD450 nm
[17] = HepG2, 72 h, read-out: cell viability (survival rate), HepG2, drug 10 μM, 72 hours, WST-1, OD450 nm
[18] = 72 h, read-out: cell viability (survival rate), LoVo, drug 10 μM, 72 hours, WST-1, OD450 nm
[19] = A-375, 72 h, read-out: cell viability (survival rate), A375, drug 10 μM, 72 hours, WST-1, OD450 nm
[20] = 72 h, read-out: cell viability (survival rate), HeLa, drug 10 μM, 72 hours, WST-1, OD450 nm
[21] = 72 h, read-out: cell viability (survival rate), PC3, drug 10 μM, 72 hours, WST-1, OD450 nm
[22] = 72 h, read-out: cell viability (survival rate), TSGH, drug 10 μM, 72 hours, WST-1, OD450 nm
[23] = MCF7, 72 h, read-out: cell viability (survival rate), MCF7, drug 10 μM, 72 hours, WST-1, OD450 nm
[24] = HL-60, 72 h, read-out: cell viability (survival rate), HL-60, drug 10 μM, 72 hours, WST-1, OD450 nm
[25] = NCI-H1650, 72 h, drug 10 μM, 72 hours, WST-1, OD450 nm, read-out: cell viability (survival rate), H1650
[26] = A549, 72 h, drug 10 μM, 72 hours, WST-1, OD450 nm, read-out: cell viability (survival rate), A549
[27] = 72 h, drug 10 μM, 72 hours, WST-1, OD450 nm, read-out: cell viability (survival rate), AGS
[28] = MKN-45, 72 h, drug 10 μM, 72 hours, WST-1, OD450 nm, read-out: cell viability (survival rate), MKN-45
[29] = HepG2, 72 h, drug 10 μM, 72 hours, WST-1, OD450 nm, read-out: cell viability (survival rate), HepG2
[30] = A-375, 72 h, drug 10 μM, 72 hours, WST-1, OD450 nm, read-out: cell viability (survival rate), A375
[31] = 72 h, drug 10 μM, 72 hours, WST-1, OD450 nm, read-out: cell viability (survival rate), HeLa
[32] = 72 h, drug 10 μM, 72 hours, WST-1, OD450 nm, read-out: cell viability (survival rate), PC3
[33] = 72 h, drug 10 μM, 72 hours, WST-1, OD450 nm, read-out: cell viability (survival rate), TSGH
[34] = MCF7, 72 h, drug 10 μM, 72 hours, WST-1, OD450 nm, read-out: cell viability (survival rate), MCF7
[35] = HL-60, 72 h, drug 10 μM, 72 hours, WST-1, OD450 nm, read-out: cell viability (survival rate), HL-60
[36] = drug 10 μM, 72 hours, WST-1, OD450 nm

Row | Molecule | inhibition effect on different cancer cell lines (cancer cell lines) | viability at 10 µM [1, 13] [%] | viability at 10 µM [2, 14] [%] | viability at 10 µM [3, 15] [%] | viability at 10 µM [4, 16] [%] | viability at 10 µM [5, 17] [%] | viability at 10 µM [6, 18] [%] | viability at 10 µM [7, 19] [%] | viability at 10 µM [8, 20] [%] | viability at 10 µM [9, 21] [%] | viability at 10 µM [10, 22] [%] | viability at 10 µM [11, 23] [%] | viability at 10 µM [12, 24] [%] | further results
1 | Cc1nnc(NS(=O)(=O)c2ccc(N)cc2)s1 [Sulfamethizole (Proklar), Sulfamethizole] | significant inhibition effect | 99.2 | 90.4 | 86.6 | 84.6 | 95 | 86.4 | 99.1 | 105 | 86 | 114 | 100 | 104 | –
2 | CC(N)C12CC3CC(CC(C3)C1)C2 (centres unmarked) [Rimantadine (Flumadine), Rimantadine] | significant inhibition effect | – | – | – | – | – | 95.7 | – | – | – | – | – | – | viability at 10 µM [1, 25]: 96.9%; viability at 10 µM [2, 26]: 111%; viability at 10 µM [3, 27]: 90.8%; viability at 10 µM [4, 28]: 82.3%; viability at 10 µM [5, 29]: 87.7%; viability at 10 µM [7, 30]: 70.3%; viability at 10 µM [8, 31]: 71.1%; viability at 10 µM [9, 32]: 91.3%; viability at 10 µM [10, 33]: 126%; viability at 10 µM [11, 34]: 97.1%; viability at 10 µM [12, 35]: 107%
3 | CCCNC(=O)NS(=O)(=O)c1ccc(Cl)cc1 [Chlorpropamide] | significant inhibition effect | – | – | – | – | – | 59.3 | – | – | – | – | – | – | viability at 10 µM [1, 25]: 55.8%; viability at 10 µM [2, 26]: 36.9%; viability at 10 µM [3, 27]: 51.2%; viability at 10 µM [4, 28]: 42.7%; viability at 10 µM [5, 29]: 92.5%; viability at 10 µM [7, 30]: 62.1%; viability at 10 µM [8, 31]: 59.9%; viability at 10 µM [9, 32]: 44.4%; viability at 10 µM [10, 33]: 59.1%; viability at 10 µM [11, 34]: 32.5%; viability at 10 µM [12, 35]: 96.7%
4 | CC1(C)S[C@@H]2[C@H](NC(=O)[C@H](NC(=O)N3CCN(S(C)(=O)=O)C3=O)c3ccccc3)C(=O)N2[C@H]1C(=O)O [Mezlocillin Sodium] | significant inhibition effect | 81 | 78 | 72.2 | 92.9 | 95.1 | 116 | 107 | 111 | 97.8 | 91.9 | 107 | 91.4 | –
5 | Cc1cc(=O)n(-c2ccccc2)n1C [Antipyrine] | significant inhibition effect | – | – | – | – | – | – | – | – | – | – | – | – | viability at 10 µM ([1]; NCI-H1650, drug 10 μM, 72 hours, WST-1, OD450 nm, read-out: cell viability (survival rate), H1650): 57.3%; viability at 10 µM ([2]; A549, drug 10 μM, 72 hours, WST-1, OD450 nm, read-out: cell viability (survival rate), A549): 76.4%; viability at 10 µM ([3]; drug 10 μM, 72 hours, WST-1, OD450 nm, read-out: cell viability (survival rate), AGS): 109%; viability at 10 µM ([4]; MKN-45, drug 10 μM, 72 hours, WST-1, OD450 nm, read-out: cell viability (survival rate), MKN-45): 109%; viability at 10 µM ([5]; HepG2, drug 10 μM, 72 hours, WST-1, OD450 nm, read-out: cell viability (survival rate), HepG2): 105%; viability at 10 µM ([6]; drug 10 μM, 72 hours, WST-1, OD450 nm, read-out: cell viability (survival rate), LoVo): 97.1%; viability at 10 µM ([7]; A-375, drug 10 μM, 72 hours, WST-1, OD450 nm, read-out: cell viability (survival rate), A375): 77.9%; viability at 10 µM ([8]; drug 10 μM, 72 hours, WST-1, OD450 nm, read-out: cell viability (survival rate), HeLa): 76.8%; viability at 10 µM ([9]; drug 10 μM, 72 hours, WST-1, OD450 nm, read-out: cell viability (survival rate), PC3): 76.8%; viability at 10 µM ([10]; drug 10 μM, 72 hours, WST-1, OD450 nm, read-out: cell viability (survival rate), TSGH): 90.1%; viability at 10 µM ([11]; MCF7, drug 10 μM, 72 hours, WST-1, OD450 nm, read-out: cell viability (survival rate), MCF7): 61.3%; viability at 10 µM ([12]; HL-60, drug 10 μM, 72 hours, WST-1, OD450 nm, read-out: cell viability (survival rate), HL-60): 102%
6 | Tenofovir [Tenofovir (Viread)] | significant inhibition effect | – | – | – | – | – | – | – | – | – | – | – | – | cell viability (survival rate), H1650 [1, 36]: 55.6; cell viability (survival rate), A549 [2, 36]: 47.7; cell viability (survival rate), AGS [3, 36]: 67.0; cell viability (survival rate), MKN-45 [4, 36]: 70.9; cell viability (survival rate), HepG2 [5, 36]: 99.0; cell viability (survival rate), LoVo [6, 36]: 85.9; cell viability (survival rate), A375 [7, 36]: 60.6; cell viability (survival rate), HeLa [8, 36]: 95.0; cell viability (survival rate), PC3 [9, 36]: 68.1; cell viability (survival rate), MCF7 [11, 36]: 71.1; cell viability (survival rate), HL-60 [12, 36]: 97.6
7 | Nc1nc2c(ncn2COCCO)c(=O)[nH]1 [Acyclovir (Aciclovir), Acyclovir] | significant inhibition effect | – | 126 | 77.1 | 55.9 | 104 | 66.3 | 112 | 87.2 | 102 | 107 | 75.8 | 91.6 | –
8 | CC(=O)O[C@]1(C(C)=O)CC[C@H]2[C@@H]3C=C(C)C4=CC(=O)CC[C@]4(C)[C@H]3CC[C@@]21C [Megestrol Acetate] | significant inhibition effect | 56 | – | 84.7 | 74.8 | 88.9 | 109 | 80.8 | 78.6 | 80.3 | 74.3 | 110 | 94 | –
9 | CN1[C@@H]2CC[C@H]1C[C@@H](OC(c1ccccc1)c1ccccc1)C2 [Benztropine mesylate] | significant inhibition effect | 91.7 | 68.2 | 83 | 89.4 | 86 | 81.4 | 67.5 | 95.3 | 75.3 | – | 63.3 | 81.1 | –
10 | CS(=O)(=O)c1ccc([C@@H](O)[C@@H](CF)NC(=O)C(Cl)Cl)cc1 [Florfenicol] | significant inhibition effect | 87 | 67.8 | – | 117 | 161 | 92.9 | 88.4 | 95.1 | 102 | 86.9 | 123 | 109 | –
11 | CCCN1CCCC[C@H]1C(=O)Nc1c(C)cccc1C [Ropivacaine HCl] | significant inhibition effect | 92.4 | 118 | 64.3 | 132 | 98 | 89.7 | 71.2 | 126 | 110 | – | 99.2 | 81.3 | –
